# According to ChEMBL document CHEMBL4052759, “Discovery of DS79182026: A potent orally active hepcidin production inhibitor” (Bioorg Med Chem Lett, 2017):
# How the values were obtained:
# [1] = target: Mitogen-activated protein kinase 3 (Homo sapiens) (UniProt P27361); test: Inhibition of Erk1 (unknown origin) at 0.078 uM relative to control
# [2] = target: Tyrosine-protein kinase SYK (Homo sapiens) (UniProt P43405); test: Inhibition of SYK (unknown origin) at 0.078 uM relative to control
# [3] = target: AMP-activated protein kinase, AMPK (Homo sapiens) (UniProt P54646+O43741+P54619+Q9UGJ0+Q9Y478+Q13131+Q9UGI9); test: Inhibition of AMPK (unknown origin) at 0.078 uM relative to control
# Homo sapiens [4] = species on record: Homo sapiens; test: Inhibition of p70S6K (unknown origin) at 0.078 uM relative to control
# [5] = target: Mitogen-activated protein kinase 1 (Homo sapiens) (UniProt P28482); test: Inhibition of Erk2 (unknown origin) at 0.078 uM relative to control
# Chain of Mitogen-activated protein kinase 1 (Homo sapiens) (P28482 whole entry): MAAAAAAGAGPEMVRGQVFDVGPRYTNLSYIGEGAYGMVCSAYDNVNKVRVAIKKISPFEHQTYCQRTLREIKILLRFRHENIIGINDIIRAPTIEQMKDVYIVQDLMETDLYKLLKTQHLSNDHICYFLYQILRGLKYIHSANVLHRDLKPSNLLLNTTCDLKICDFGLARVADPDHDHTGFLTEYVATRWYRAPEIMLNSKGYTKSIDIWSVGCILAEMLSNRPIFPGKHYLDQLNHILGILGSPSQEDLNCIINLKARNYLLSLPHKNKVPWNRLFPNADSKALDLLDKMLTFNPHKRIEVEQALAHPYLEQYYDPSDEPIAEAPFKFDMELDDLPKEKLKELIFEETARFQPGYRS
# [6] = target: Tyrosine-protein kinase Lyn (Homo sapiens) (UniProt P07948); test: Inhibition of LYN (unknown origin) at 0.49 uM relative to control
# Chain of Tyrosine-protein kinase Lyn (Homo sapiens) (P07948 2-512 limits assumed): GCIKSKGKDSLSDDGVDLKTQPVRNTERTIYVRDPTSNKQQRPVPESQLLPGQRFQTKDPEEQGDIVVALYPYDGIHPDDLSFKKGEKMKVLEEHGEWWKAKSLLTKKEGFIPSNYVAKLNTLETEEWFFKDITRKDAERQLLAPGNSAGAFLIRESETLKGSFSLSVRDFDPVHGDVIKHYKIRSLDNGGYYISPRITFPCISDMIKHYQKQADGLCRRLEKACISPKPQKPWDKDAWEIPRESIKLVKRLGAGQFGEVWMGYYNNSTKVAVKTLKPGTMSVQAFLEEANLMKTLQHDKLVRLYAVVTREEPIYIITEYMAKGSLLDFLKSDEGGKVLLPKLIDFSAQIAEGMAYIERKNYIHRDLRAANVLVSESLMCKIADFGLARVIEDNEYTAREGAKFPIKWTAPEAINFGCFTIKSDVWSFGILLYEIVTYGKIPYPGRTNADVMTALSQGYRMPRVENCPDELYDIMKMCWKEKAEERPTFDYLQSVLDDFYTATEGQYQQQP
# [7] = target: Rho-associated protein kinase 2 (Homo sapiens) (UniProt O75116); test: Inhibition of ROCK2 (unknown origin) at 0.49 uM relative to control
# [8] = target: NT-3 growth factor receptor (Homo sapiens) (UniProt Q16288); test: Inhibition of TRKC (unknown origin) at 0.49 uM relative to control
# [9] = target: T1, Serine/threonine-protein kinase Chk1 (Homo sapiens) (UniProt O14757); test: Inhibition of CHK1 (unknown origin) at 0.49 uM relative to control
# T1 sequence (whole entry): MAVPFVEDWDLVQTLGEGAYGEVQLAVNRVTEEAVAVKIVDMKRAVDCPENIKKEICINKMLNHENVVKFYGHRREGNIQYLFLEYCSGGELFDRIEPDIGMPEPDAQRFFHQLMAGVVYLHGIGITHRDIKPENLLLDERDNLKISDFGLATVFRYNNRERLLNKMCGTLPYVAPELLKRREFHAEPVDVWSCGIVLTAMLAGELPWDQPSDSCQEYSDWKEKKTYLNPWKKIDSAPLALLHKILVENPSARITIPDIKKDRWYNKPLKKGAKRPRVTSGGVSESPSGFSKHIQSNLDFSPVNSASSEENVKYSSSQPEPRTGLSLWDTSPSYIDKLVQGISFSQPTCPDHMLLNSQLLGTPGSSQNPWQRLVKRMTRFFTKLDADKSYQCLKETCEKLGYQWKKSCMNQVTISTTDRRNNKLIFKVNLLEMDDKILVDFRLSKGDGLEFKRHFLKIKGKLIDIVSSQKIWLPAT
# Homo sapiens [10] = species on record: Homo sapiens; test: Inhibition of ACK (unknown origin) at 0.49 uM relative to control
# [11] = target: Calcium/calmodulin-dependent protein kinase type II subunit beta (Homo sapiens) (UniProt Q13554); test: Inhibition of CaMK2-beta (unknown origin) at 0.49 uM relative to control
# [12] = target: Vascular endothelial growth factor receptor 3 (Homo sapiens) (UniProt P35916); test: Inhibition of FLT4 (unknown origin) at 0.49 uM relative to control
# [13] = target: Dual specificity tyrosine-phosphorylation-regulated kinase 1B (Homo sapiens) (UniProt Q9Y463); test: Inhibition of DYRK1B (unknown origin) at 0.49 uM relative to control
# [14] = target: CDK4/Cyclin D3 (Homo sapiens) (UniProt P11802+P30281); test: Inhibition of CDK4/CyclinD3 (unknown origin) at 0.49 uM relative to control; assay type: protein-complex assay
# [15] = target: T2, Serine/threonine-protein kinase Sgk1 (Homo sapiens) (UniProt O00141); test: Inhibition of SGK1 (unknown origin) at 0.49 uM relative to control
# T2 sequence (whole entry): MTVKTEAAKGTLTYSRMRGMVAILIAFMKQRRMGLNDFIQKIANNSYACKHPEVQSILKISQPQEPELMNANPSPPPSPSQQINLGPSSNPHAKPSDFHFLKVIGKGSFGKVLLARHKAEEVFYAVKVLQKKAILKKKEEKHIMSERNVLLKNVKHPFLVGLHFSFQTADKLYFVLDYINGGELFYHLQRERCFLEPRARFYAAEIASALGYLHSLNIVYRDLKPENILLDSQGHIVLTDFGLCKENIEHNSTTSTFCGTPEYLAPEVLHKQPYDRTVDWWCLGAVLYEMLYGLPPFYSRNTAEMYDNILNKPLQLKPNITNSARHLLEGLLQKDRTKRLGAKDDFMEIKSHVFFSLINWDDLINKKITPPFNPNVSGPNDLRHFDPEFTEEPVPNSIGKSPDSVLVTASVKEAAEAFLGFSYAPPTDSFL
# [16] = target: Homeodomain-interacting protein kinase 1 (Homo sapiens) (UniProt Q86Z02); test: Inhibition of HIPK1 (unknown origin) at 0.45 uM relative to control
# [17] = target: Insulin-like growth factor 1 receptor (Homo sapiens) (UniProt P08069); test: Inhibition of IGF1R (unknown origin) at 0.45 uM relative to control
# Chain of Insulin-like growth factor 1 receptor (Homo sapiens) (P08069 31-736 limits assumed): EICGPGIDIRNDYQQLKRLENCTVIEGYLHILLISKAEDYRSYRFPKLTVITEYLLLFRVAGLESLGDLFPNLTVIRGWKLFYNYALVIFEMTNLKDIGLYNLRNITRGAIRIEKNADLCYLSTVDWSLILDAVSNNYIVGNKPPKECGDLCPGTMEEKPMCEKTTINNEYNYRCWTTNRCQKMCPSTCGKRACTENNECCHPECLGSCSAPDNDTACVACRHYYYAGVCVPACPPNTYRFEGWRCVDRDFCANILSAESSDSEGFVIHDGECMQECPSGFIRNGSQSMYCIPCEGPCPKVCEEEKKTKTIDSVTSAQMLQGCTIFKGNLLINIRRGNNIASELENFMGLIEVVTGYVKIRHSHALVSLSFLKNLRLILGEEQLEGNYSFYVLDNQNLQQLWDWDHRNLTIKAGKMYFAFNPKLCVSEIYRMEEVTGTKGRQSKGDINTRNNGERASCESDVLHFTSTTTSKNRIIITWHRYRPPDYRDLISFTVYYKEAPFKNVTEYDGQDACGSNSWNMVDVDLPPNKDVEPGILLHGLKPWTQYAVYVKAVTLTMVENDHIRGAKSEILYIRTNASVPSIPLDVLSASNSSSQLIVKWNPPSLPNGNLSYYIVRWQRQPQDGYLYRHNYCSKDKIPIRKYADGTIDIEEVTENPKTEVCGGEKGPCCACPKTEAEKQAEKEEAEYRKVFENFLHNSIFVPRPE
# Chain of Insulin-like growth factor 1 receptor (Homo sapiens) (P08069 741-1367 limits assumed): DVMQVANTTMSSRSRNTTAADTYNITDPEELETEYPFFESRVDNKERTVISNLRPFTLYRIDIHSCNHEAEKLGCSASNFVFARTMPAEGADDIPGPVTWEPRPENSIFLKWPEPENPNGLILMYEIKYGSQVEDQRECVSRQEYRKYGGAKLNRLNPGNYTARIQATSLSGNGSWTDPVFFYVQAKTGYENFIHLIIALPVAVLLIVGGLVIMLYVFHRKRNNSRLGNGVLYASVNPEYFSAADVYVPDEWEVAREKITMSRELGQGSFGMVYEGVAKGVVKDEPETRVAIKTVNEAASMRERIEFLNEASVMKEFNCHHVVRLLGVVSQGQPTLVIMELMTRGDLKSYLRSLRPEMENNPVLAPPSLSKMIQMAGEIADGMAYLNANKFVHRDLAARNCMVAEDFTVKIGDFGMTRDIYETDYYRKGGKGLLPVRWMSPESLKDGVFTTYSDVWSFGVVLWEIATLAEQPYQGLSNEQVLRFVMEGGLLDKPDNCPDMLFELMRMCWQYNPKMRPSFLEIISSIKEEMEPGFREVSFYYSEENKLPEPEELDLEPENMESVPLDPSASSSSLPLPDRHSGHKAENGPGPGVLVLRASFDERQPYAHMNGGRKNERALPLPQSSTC
# [18] = target: Tyrosine-protein kinase Lck (Homo sapiens) (UniProt P06239); test: Inhibition of LCK (unknown origin) at 0.45 uM relative to control
# [19] = test system: Tyrosine-protein kinase ABL1 (Homo sapiens), P00519 [H396P]; test: Inhibition of Abl H396P mutant (unknown origin) at 0.45 uM relative to control
# [20] = target: Tyrosine-protein kinase Fgr (Homo sapiens) (UniProt P09769); test: Inhibition of FGR (unknown origin) at 0.45 uM relative to control
# Chain of Tyrosine-protein kinase Fgr (Homo sapiens) (P09769 2-529 limits assumed): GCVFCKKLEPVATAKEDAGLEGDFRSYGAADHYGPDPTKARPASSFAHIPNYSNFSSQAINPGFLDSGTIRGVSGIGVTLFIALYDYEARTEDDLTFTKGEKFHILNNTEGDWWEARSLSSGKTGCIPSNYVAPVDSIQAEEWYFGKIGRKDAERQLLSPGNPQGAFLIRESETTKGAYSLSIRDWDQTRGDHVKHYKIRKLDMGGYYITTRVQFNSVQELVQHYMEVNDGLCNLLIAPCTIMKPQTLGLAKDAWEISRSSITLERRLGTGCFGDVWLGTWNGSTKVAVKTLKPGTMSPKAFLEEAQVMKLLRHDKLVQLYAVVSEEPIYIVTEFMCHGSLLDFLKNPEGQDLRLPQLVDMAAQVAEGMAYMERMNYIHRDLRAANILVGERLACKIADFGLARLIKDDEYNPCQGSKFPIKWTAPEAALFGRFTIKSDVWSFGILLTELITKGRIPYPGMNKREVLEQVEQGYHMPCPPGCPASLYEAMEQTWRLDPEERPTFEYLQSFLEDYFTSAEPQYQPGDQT
# [21] = test system: Proto-oncogene tyrosine-protein kinase receptor Ret (Homo sapiens), P07949 [V804L]; test: Inhibition of Ret V804L mutant (unknown origin) at 0.45 uM relative to control
# Chain of Proto-oncogene tyrosine-protein kinase receptor Ret (Homo sapiens), P07949 [V804L] (P07949 whole entry V804L): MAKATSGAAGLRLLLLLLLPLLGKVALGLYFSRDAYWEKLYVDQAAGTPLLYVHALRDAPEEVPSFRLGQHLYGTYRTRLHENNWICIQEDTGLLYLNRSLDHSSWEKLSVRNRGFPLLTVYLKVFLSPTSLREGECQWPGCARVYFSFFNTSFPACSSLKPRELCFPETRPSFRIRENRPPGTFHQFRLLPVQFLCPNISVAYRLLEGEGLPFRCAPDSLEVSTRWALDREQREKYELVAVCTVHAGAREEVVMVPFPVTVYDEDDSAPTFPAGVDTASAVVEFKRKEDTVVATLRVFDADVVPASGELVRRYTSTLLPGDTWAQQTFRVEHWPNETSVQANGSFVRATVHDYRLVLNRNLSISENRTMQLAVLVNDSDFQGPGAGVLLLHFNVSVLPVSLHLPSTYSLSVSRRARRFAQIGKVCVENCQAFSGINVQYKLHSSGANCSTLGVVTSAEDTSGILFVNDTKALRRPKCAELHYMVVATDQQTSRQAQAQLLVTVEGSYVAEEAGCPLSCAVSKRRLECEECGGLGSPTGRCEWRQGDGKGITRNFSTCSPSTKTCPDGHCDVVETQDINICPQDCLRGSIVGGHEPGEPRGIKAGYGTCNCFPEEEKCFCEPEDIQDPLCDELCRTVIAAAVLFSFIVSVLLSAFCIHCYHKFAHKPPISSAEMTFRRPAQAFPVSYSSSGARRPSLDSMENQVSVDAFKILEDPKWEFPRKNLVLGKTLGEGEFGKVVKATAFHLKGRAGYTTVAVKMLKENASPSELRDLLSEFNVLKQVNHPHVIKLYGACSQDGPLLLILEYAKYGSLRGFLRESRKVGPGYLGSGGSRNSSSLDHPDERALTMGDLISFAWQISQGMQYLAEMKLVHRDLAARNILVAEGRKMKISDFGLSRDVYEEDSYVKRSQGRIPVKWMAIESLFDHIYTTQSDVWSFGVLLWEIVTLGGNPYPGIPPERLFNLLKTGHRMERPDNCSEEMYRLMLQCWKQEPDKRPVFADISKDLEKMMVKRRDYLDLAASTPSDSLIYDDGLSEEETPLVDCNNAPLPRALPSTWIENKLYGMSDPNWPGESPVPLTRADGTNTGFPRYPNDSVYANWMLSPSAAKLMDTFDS
# [22] = target: Dual specificity tyrosine-phosphorylation-regulated kinase 1A (Homo sapiens) (UniProt Q13627); test: Inhibition of DYRK1a (unknown origin) at 0.45 uM relative to control
# [23] = target: Homeodomain-interacting protein kinase 4 (Homo sapiens) (UniProt Q8NE63); test: Inhibition of HIPK4 (unknown origin) at 0.45 uM relative to control
# Chain of Homeodomain-interacting protein kinase 4 (Homo sapiens) (Q8NE63 whole entry): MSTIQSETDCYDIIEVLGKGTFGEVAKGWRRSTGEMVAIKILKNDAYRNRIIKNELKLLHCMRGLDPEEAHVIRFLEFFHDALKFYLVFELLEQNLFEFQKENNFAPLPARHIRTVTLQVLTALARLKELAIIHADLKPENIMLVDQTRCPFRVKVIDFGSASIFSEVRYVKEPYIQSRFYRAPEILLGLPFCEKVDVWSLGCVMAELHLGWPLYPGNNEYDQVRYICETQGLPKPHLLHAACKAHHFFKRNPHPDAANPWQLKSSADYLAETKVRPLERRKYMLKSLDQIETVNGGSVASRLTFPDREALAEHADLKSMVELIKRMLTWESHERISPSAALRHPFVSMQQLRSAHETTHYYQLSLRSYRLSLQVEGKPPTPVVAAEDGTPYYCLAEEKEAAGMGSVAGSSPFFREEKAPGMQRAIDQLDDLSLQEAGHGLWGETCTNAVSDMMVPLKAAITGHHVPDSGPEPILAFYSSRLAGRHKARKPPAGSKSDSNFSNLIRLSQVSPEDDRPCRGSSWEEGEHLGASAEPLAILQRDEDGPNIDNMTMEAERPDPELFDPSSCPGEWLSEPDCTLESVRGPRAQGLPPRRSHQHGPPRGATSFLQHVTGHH
# Chain of Mitogen-activated protein kinase 3 (Homo sapiens) (P27361 whole entry): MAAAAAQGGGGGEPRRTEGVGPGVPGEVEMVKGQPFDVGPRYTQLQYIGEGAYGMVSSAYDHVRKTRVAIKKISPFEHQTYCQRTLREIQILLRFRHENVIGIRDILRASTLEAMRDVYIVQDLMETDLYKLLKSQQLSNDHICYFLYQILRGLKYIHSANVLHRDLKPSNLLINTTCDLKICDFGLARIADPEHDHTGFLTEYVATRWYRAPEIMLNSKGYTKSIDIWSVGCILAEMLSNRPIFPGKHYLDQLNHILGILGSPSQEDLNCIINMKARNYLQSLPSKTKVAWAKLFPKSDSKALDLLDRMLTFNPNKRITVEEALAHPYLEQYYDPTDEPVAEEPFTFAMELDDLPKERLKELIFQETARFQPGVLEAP
structure (smiles),measurement,setting,value
COC(=O)Nc1noc2cc(-c3c(-c4ccccn4)n[nH]c3C)ccc12,inhibition,[1],8%
same,inhibition,[2],0%
same,inhibition,[3],2.7%
same,inhibition,Homo sapiens [4],4%
same,inhibition,[5],-0.7%
Cc1[nH]nc(C2CC2)c1-c1ccc2c(NC(=O)C3CC3)noc2c1,inhibition,[6],6.7%
same,inhibition,[7],8.7%
same,inhibition,[8],6.3%
same,inhibition,[9],0%
same,inhibition,Homo sapiens [10],2.3%
same,inhibition,[11],2.3%
same,inhibition,[12],-2.7%
same,inhibition,[13],2%
same,inhibition,[14],-6.7%
same,inhibition,[15],2.3%
Cc1n[nH]c(C)c1-c1ccc2c(NC(=O)c3ccc(N4CCN(C)CC4)cc3)n[nH]c2c1,inhibition,[16],2.7%
same,inhibition,[17],3%
same,inhibition,[18],32.3%
same,inhibition,[19],84%
same,inhibition,[20],13%
same,inhibition,[21],21.3%
same,inhibition,[22],6.3%
same,inhibition,[23],1.3%
